# Laboratory results taken from patent publication US8404836B2, “3-phenyl acrylic acid compound activators of type PPAR receptors and pharmaceutical/cosmetic compositions comprised thereof” (Galderma Research & Development, priority 2007, dated 2013).
# How the values were obtained:
# [1] = target: T1, PPARγ (Homo sapiens, UniProt P37231); experiment: PPAR transactivation test in crossed curves (HeLN luciferase reporter), PPARγ; format: cell-based; settings: HeLN cells stably transfected with Gal-hPPARγ and luciferase reporter; crossed curves vs reference agonist, Schild regression; read-out: PPAR gamma Kd app
# T1 sequence (P37231 238-505 limits assumed): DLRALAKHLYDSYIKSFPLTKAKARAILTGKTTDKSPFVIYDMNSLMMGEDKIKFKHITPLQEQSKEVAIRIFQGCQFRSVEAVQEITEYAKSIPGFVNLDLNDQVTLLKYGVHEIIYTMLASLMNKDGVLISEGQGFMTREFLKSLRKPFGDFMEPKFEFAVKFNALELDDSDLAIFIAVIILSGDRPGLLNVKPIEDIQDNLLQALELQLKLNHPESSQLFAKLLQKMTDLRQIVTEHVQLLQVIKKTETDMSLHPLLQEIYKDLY
# Procedure: (§1) Activation of the PPAR receptors by an agonist (activator) in HeLN cells leads to the expression of a reporter gene, luciferase, which, in the presence of a substrate, generates light. The modulation of the PPAR receptors is measured by quantifying the luminescence produced after incubation of the cells in the presence of a reference agonist. The ligands will displace the agonist from its site. The activity is measured by quantifying the light produced. This measurement makes it possible to determine the modulating activity of the compounds according to the invention by determining the constant representing the affinity of the molecule for the PPAR receptor. This value, which can fluctuate according to the basal activity and expression of the receptor, is called apparent Kd (KdApp, nM).
# (§2) To determine this constant, “crossed curves” of the test product versus a reference agonist are carried out in a 96-well plate: 10 concentrations of the test product plus a 0 concentration are arranged in rows, and 7 concentrations of the agonist plus a 0 concentration are arranged in columns. This is 88 measurement points for 1 product and 1 receptor. The 8 remaining wells are used for repeatability controls.
# (§3) Measurements are also carried out for the total agonist controls with the same products.
# (§4) The HeLN cell lines used are stable transfectants containing the plasmids ERE-βGlob-Luc-SV-Neo (reporter gene) and PPAR (α, δ, γ) Gal-hPPAR. These cells are sown in 96-well plates at a rate of 10 000 cells per well in 100 μl of DMEM medium without phenol red and supplemented with 10% of delipidated calf serum. The plates are then incubated at 37° C., 7% CO2 for 16 hours.
# (§5) The various dilutions of the test products and of the reference ligand are added at a rate of 5 μl per well. The plates are then incubated for 18 hours at 37° C., 7% CO2.
# (§6) The culture medium is removed by inverting and 100 μl of a 1:1 mixture PBS/Luciferine is added to each well. After 5 minutes, the plates are read with the luminescence reader.
# [2] = target: T2, PPARα (Homo sapiens, UniProt Q07869); experiment: PPAR transactivation test in crossed curves (HeLN luciferase reporter), PPARα; format: cell-based; settings: HeLN cells stably transfected with Gal-hPPARα and luciferase reporter; crossed curves vs reference agonist, Schild regression; read-out: PPAR alpha Kd app
# T2 sequence (Q07869 200-468 limits assumed): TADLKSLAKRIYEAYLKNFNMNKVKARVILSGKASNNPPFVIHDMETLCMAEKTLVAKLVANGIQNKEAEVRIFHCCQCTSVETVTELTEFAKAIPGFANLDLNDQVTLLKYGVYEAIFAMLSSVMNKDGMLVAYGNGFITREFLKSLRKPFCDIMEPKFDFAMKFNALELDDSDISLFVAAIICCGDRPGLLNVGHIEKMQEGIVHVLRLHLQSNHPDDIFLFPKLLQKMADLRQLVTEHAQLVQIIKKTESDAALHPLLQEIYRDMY
# Procedure: as §1, §2, §3, §4, §5, §6
# (§7) These AC50 are used for calculating the Schild regression by plotting a straight line corresponding to the Schild equation (“Quantitation in receptor pharmacology” Terry P. Kenakin, Receptors and Channels, 2001, 7, 371-385) which provides the values of Kd app (in nM).
# [3] = target: T3, PPARδ (Homo sapiens, UniProt Q03181); experiment: PPAR transactivation test in crossed curves (HeLN luciferase reporter), PPARδ; format: cell-based; settings: HeLN cells stably transfected with Gal-hPPARδ and luciferase reporter; crossed curves vs reference agonist, Schild regression; read-out: PPARs delta Kd app
# T3 sequence (Q03181 171-441 limits assumed): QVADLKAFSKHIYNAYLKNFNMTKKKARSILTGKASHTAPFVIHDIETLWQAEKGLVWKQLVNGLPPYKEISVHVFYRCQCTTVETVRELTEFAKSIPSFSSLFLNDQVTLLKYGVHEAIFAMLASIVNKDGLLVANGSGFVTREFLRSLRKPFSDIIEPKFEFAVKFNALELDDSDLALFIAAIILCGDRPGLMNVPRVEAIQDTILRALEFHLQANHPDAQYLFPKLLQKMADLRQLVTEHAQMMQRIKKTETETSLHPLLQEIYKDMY
# Procedure: as §1, §2, §3, §4, §5, §6, §7
SMILES,Kd [1],melting point,Kd [2],Kd [3]
"CCCCS(=O)(=O)Oc1ccc(CCOc2ccc(/C=C(\OCC)C(=O)O)cc2OC)cc1 [Example 1, (Z)-3-(4-{2-[4-(butane-1-sulfonyloxy)-phenyl]-ethoxy}-3-methoxy-phenyl)-2-ethoxy-acrylic acid]",8 nM,94 °C,,
"CCCCOc1cc(/C=C(\OCC)C(=O)O)ccc1CCCc1ccc(OS(=O)(=O)CCCC)c(OC)c1 [Example 3, (Z)-3-(4-{3-[4-(butane-1-sulfonyloxy)-3-methoxy-phenyl]-propyl}-3-butoxy-phenyl)-2-ethoxy-acrylic acid]",15 nM,,60 nM,250 nM
"CCCCOc1cc(/C=C(\OCC)C(=O)O)ccc1OCCc1ccc(OS(=O)(=O)CCCC)cc1 [Example 6, (Z)-3-(4-{2-[4-(butane-1-sulfonyloxy)-phenyl]-ethoxy}-3-butoxy-phenyl)-2-ethoxy-acrylic acid]",2 nM,,120 nM,
"CCCCOc1cc(/C=C(\OCC)C(=O)O)ccc1OCCc1ccc(OS(C)(=O)=O)c(OC)c1 [Example 7, (Z)-3-{3-butoxy-4-[2-(4-methanesulfonyloxy-3-methoxy-phenyl)-ethoxy]-phenyl}-2-ethoxy-acrylic acid]",15 nM,97 °C,250 nM,
"CCCCOc1cc(/C=C(\OCC)C(=O)O)ccc1OCCc1ccc(OS(=O)(=O)CCCC)c(OC)c1 [Example 8, (Z)-3-(4-{2-[4-(butane-1-sulfonyloxy)-3-methoxy-phenyl]-ethoxy}-3-butoxy-phenyl)-2-ethoxy-acrylic acid]",15 nM,,120 nM,2000 nM
"CCCCOc1cc(/C=C(\OCC)C(=O)O)ccc1OCCc1ccc(OS(=O)(=O)CCCC)cc1OC [Example 9, (Z)-3-(4-{2-[4-(butane-1-sulfonyloxy)-2-methoxy-phenyl]-ethoxy}-3-butoxy-phenyl)-2-ethoxy-acrylic acid]",8 nM,,2000 nM,
"CCCCOc1cc(/C=C(\OCC)C(=O)O)ccc1OCCc1ccc(OS(C)(=O)=O)cc1OC [Example 10, (Z)-3-{3-butoxy-4-[2-(4-methanesulfonyloxy-2-methoxy-phenyl)-ethoxy]-phenyl}-2-ethoxy-acrylic acid]",,112 °C,,
"CCCCOc1cc(/C=C(\OCC)C(=O)O)ccc1OCCc1ccc(OCC)c(F)c1 [Example 11, (Z)-3-{3-butoxy-4-[2-(4-ethoxy-3-fluoro-phenyl)-ethoxy]-phenyl}-2-ethoxy-acrylic acid]",,119 °C,,
"CCCCCOc1ccc(CCOc2ccc(/C=C(\OCC)C(=O)O)cc2OCCCC)cc1F [Example 12, (Z)-3-{3-butoxy-4-[2-(3-fluoro-4-pentyloxy-phenyl)-ethoxy]-phenyl}-2-ethoxy-acrylic acid]",,102 °C,,
"CCCCOc1cc(/C=C(\OCC)C(=O)O)ccc1OCCc1ccc(OS(=O)(=O)CCCC)c(F)c1 [Example 13, (Z)-3-(4-{2-[4-(butane-1-sulfonyloxy)-3-fluoro-phenyl]-ethoxy}-3-butoxy-phenyl)-2-ethoxy-acrylic acid]",8 nM,99 °C,250 nM,2000 nM
"CCCCCOc1ccc(CCOc2ccc(/C=C(\OCC)C(=O)O)cc2OCCCC)cc1Cl [Example 15, (Z)-3-{3-butoxy-4-[2-(3-chloro-4-pentyloxy-phenyl)-ethoxy]-phenyl}-2-ethoxy-acrylic acid]",,95 °C,,
"CCCCOc1cc(/C=C(\OCC)C(=O)O)ccc1OCCc1ccc(OS(C)(=O)=O)c(Cl)c1 [Example 16, (Z)-3-{3-butoxy-4-[2-(3-chloro-4-methanesulfonyloxy-phenyl)-ethoxy]-phenyl}-2-ethoxy-acrylic acid]",,113 °C,,
"CCCCOc1cc(/C=C(\OCC)C(=O)O)ccc1OCCc1ccc(OS(=O)(=O)CCCC)c(Cl)c1 [Example 17, (Z)-3-(4-{2-[4-(butane-1-sulfonyloxy)-3-chloro-phenyl]-ethoxy}-3-butoxy-phenyl)-2-ethoxy-acrylic acid]",8 nM,80 °C,60 nM,1000 nM
"CCO/C(=C\c1ccc(OCCc2ccc(OCC)cc2)c(OC)c1)C(=O)O [Example 19, (Z)-2-ethoxy-3-{4-[2-(4-ethoxy-phenyl)-ethoxy]-3-methoxy-phenyl}-acrylic acid]",,121 °C,,
"CCCCOc1cc(/C=C(\OCC)C(=O)O)ccc1OCCc1ccc(NS(=O)(=O)CCCC)cc1 [Example 22, (Z)-3-(4-{2-[4-(butane-1-sulfonylamino)-phenyl]-ethoxy}-3-butoxy-phenyl)-2-ethoxy-acrylic acid]",,164 °C,,
"CCCCOc1cc(/C=C(\OCC)C(=O)O)ccc1OCCc1ccc(N(C)S(C)(=O)=O)cc1 [Example 23, (Z)-3-(3-butoxy-4-{2-[4-(methanesulfonyl-methyl-amino)-phenyl]-ethoxy}-phenyl)-2-ethoxy-acrylic acid]",,112 °C,,
